pEC50: −log10 of the molar value. In brackets after ≈: the same amount, converted by molar mass. Read-outs that look alike come from different tables or passages of the source. *1 amine or outer side, *2 acyl side, *3 side chain or, on linkers, in order; H or OH if unused. Where a SMILES comes first, the peptide text is derived from it. Side-chain parts run from the residue outwards. [ ]: non-standard residue; d: D form. The star is where a group is joined. γGlu = O=C(O)[C@H](CCC(=O)[*:2])N[*:1]; Stearoyl = CCCCCCCCCCCCCCCCCC(=O)*; Aib = CC(C)(N)C(=O)O
How the values were obtained:
[1] = biological target: T1, human GIP receptor (human) (UniProt P48546); assay: cell-based or functional assay
T1 sequence (looked up): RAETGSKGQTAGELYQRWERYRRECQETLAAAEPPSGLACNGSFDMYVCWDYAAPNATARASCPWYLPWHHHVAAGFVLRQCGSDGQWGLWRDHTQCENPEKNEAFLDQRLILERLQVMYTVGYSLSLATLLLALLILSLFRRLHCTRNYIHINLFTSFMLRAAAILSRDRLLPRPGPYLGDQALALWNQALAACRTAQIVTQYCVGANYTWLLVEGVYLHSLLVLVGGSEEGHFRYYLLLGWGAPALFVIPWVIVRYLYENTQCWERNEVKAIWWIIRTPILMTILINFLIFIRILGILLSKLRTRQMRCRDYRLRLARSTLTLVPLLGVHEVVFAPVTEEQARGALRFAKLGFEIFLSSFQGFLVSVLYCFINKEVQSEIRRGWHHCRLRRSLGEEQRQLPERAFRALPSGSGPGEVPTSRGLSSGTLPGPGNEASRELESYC

[2] = biological target: human GLP-1 receptor (human) (UniProt P43220); assay: cell-based or functional assay
[3] = biological target: T2, human GIP receptor (hGIP R) (Homo sapiens, UniProt P48546); assay: cAMP response of HEK-293 cells stably expressing human GIP receptor (HTRF); format: cell-based
T2 construct: expressed in transfected cells; host or cells: HEK-293
T2 sequence (P48546 22-466): T1 sequence (looked up)
Experimental: (§1) cAMP content of cells was determined using a kit from Cisbio Corp. (cat. no. 62AM4PEC) based on HTRF (Homogenous Time Resolved Fluorescence). For preparation, cells were split into T175 culture flasks and grown overnight to near confluency in medium (DMEM/10% FBS). Medium was then removed and cells washed with PBS lacking calcium and magnesium, followed by proteinase treatment with accutase (Sigma-Aldrich cat. no. A6964). Detached cells were washed and resuspended in assay buffer (1×HBSS; 20 mM HEPES, 0.1% BSA, 2 mM IBMX) and cellular density determined. They were then diluted to 400000 cells/ml and 25 μl-aliquots dispensed into the wells of 96-well plates. For measurement, 25 μl of test compound in assay buffer was added to the wells, followed by incubation for 30 minutes at room temperature.

[4] = biological target: T3, human GLP-1 receptor (hGLP-1 R) (Homo sapiens, UniProt P43220); assay: cAMP response of HEK-293 cells stably expressing human GLP-1 receptor (HTRF); format: cell-based; conditions: Table 7, cAMP formation
T3 construct: expressed in transfected cells; host or cells: HEK-293
Experimental: as §1

[5] = biological target: T4, human glucagon receptor (hGLUC R) (Homo sapiens, UniProt P47871); assay: cAMP response of HEK-293 cells stably expressing human glucagon receptor (HTRF); format: cell-based; conditions: Table 7, cAMP formation
T4 construct: expressed in transfected cells; host or cells: HEK-293
Experimental: as §1

[6] = tested on: non-fasted female diabetic dbdb-mice; assay: Glucose lowering in non-fasted female diabetic dbdb-mice; format: in vivo; conditions: 3 μg/kg s.c.
Source text: Female diabetic dbdb-mice of mean non-fasted glucose value of 20-22 mmol/l and a body weight of 42 g+/−0.6 g (SEM) were used. Mice were individually marked and were adapted to housing conditions for at least one week.
3-5 days prior to study start mice were assigned to groups and cages (4 mice per cage, 8 per group) according to their non-fasted glucose values to ensure even distribution of lower and higher values between groups (stratification). On the study day, mice were weighed and dosed (t=0). Immediately prior to compound administration feed was removed while water remained available, and a first blood sample at a tail incision was drawn (baseline). Further blood samples were drawn at the tail incision at 30, 60, 90, 120, 240, 360, and 480 min.
Statistical analyses are performed with Everstat Version 6.0 based on SAS by 2-way-ANOVA on repeated measures, followed by Dunnett's post-hoc test against vehicle-control. Differences are considered statistically significant at the p<0.05 level.
Female dbdb-mice, received 3 μg/kg of SEQ ID NO: 13 or phosphate buffered saline (vehicle control) subcutaneously, at time 0 min.

[7] = Chemical stability in solution, 7 days at 25° C. (% remaining peptide); format: physicochemical; conditions: % remaining peptide after 7 days at 25° C., pH 7.4
Source text: The chemical stability is expressed as “% remaining peptide”.

[8] = Solubility testing in buffer systems (HPLC-UV); format: physicochemical; conditions: buffer system, target concentration 1.0 mg/mL

T3 sequence (P43220 24-463): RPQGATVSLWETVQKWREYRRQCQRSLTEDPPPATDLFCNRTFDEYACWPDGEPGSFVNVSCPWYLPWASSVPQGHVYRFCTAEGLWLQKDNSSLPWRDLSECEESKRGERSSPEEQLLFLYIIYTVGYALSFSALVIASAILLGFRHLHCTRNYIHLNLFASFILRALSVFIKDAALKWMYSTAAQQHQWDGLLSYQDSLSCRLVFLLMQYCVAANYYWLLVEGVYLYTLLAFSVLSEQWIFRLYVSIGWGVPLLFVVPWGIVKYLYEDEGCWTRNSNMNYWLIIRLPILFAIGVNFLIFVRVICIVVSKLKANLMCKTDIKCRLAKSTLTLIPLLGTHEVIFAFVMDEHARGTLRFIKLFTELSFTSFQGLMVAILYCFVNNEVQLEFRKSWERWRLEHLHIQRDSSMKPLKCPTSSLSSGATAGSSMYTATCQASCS
T4 sequence (P47871 26-477): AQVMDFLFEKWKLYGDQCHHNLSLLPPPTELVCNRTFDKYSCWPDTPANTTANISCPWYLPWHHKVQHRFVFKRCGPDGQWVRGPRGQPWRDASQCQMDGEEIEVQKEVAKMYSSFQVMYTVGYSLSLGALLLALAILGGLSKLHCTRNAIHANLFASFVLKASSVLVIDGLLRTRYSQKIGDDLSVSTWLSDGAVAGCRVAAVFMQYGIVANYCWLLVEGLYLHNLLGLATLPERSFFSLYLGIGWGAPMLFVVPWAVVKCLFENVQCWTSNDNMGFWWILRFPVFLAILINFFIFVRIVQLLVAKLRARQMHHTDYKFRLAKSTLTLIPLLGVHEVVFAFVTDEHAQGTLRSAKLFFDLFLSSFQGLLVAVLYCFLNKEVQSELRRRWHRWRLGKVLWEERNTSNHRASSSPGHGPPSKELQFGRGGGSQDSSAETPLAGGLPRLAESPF
human GLP-1 receptor (human), sequence (P43220 24-463): as the sequence (P43220 24-463) above

Compound: Tyr(1)Ile(12)-exendin-4 (peptide)
- EC50 hGIP R [pM] (formed cAMP) [1]: 93.9 pM
- EC50 hGLP-1 R [pM] (formed cAMP) [2]: 1.3 pM

Compound: CCCCCCCCCCCCCCCCCC(=O)N[C@@H](CCC(=O)NCCCC[C@H](NC(=O)[C@H](CCC(N)=O)NC(=O)[C@@H](NC(=O)[C@H](CO)NC(=O)[C@H](CC(C)C)NC(=O)[C@H](CC(=O)O)NC(=O)[C@H](CO)NC(=O)[C@@H](NC(=O)[C@H](Cc1ccccc1)NC(=O)[C@@H](NC(=O)CNC(=O)[C@H](CCC(=O)O)NC(=O)C(C)(C)NC(=O)[C@@H](N)Cc1ccc(O)cc1)[C@@H](C)O)[C@@H](C)O)[C@@H](C)CC)C(=O)N[C@@H](CCC(=O)O)C(=O)N[C@@H](CCC(=O)O)C(=O)N[C@@H](CCC(=O)O)C(=O)N[C@@H](C)C(=O)N[C@H](C(=O)N[C@@H](CCCNC(=N)N)C(=O)N[C@@H](CC(C)C)C(=O)N[C@@H](Cc1ccccc1)C(=O)N[C@H](C(=O)N[C@@H](CCC(=O)O)C(=O)N[C@@H](Cc1c[nH]c2ccccc12)C(=O)N[C@@H](CC(C)C)C(=O)N[C@@H](CCCCN)C(=O)NC(C)(C)C(=O)NCC(=O)NCC(=O)N1CCC[C@H]1C(=O)N[C@@H](CO)C(=O)N[C@@H](CO)C(=O)NCC(=O)N[C@@H](C)C(=O)N1CCC[C@H]1C(=O)N1CCC[C@H]1C(=O)N1CCC[C@H]1C(=O)N[C@@H](CO)C(N)=O)[C@@H](C)CC)C(C)C)C(=O)O [SEQ ID NO: 9, Y-Aib-E-G-T-F-T-S-D-L-S-I-Q-K(γE-x70)-E-E-E-A-V-R-L-F-I-E-W-L-K-Aib-G-G-P-S-S-G-A-P-P-P-S-NH2]
- pEC50 [3]: 10.84
- pEC50 ([4]; EC50 hGLP-1 R): 10.57
- pEC50 ([5]; EC50 hGLUC R): 6.79

Compound: CCCCCCCCCCCCCCCCCC(=O)N[C@@H](CCC(=O)NCCCC[C@H](NC(=O)[C@H](CCC(N)=O)NC(=O)[C@@H](NC(=O)[C@H](CO)NC(=O)[C@H](CC(C)C)NC(=O)[C@H](CC(=O)O)NC(=O)[C@H](CO)NC(=O)[C@@H](NC(=O)[C@H](Cc1ccccc1)NC(=O)[C@@H](NC(=O)CNC(=O)[C@H](CCC(=O)O)NC(=O)C(C)(C)NC(=O)[C@@H](N)Cc1ccc(O)cc1)[C@@H](C)O)[C@@H](C)O)[C@@H](C)CC)C(=O)N[C@@H](CCC(=O)O)C(=O)N[C@@H](CCCCN)C(=O)N[C@@H](CCC(=O)O)C(=O)N[C@@H](C)C(=O)N[C@H](C(=O)N[C@@H](CCCNC(=N)N)C(=O)N[C@@H](CC(C)C)C(=O)N[C@@H](Cc1ccccc1)C(=O)N[C@H](C(=O)N[C@@H](CCC(=O)O)C(=O)N[C@@H](Cc1c[nH]c2ccccc12)C(=O)N[C@@H](CC(C)C)C(=O)N[C@@H](CCCCN)C(=O)N[C@@H](C)C(=O)NCC(=O)NCC(=O)N1CCC[C@H]1C(=O)N[C@@H](CO)C(=O)N[C@@H](CO)C(=O)NCC(=O)N[C@@H](C)C(=O)N1CCC[C@H]1C(=O)N1CCC[C@H]1C(=O)N1CCC[C@H]1C(=O)N[C@@H](CO)C(N)=O)[C@@H](C)CC)C(C)C)C(=O)O [SEQ ID NO: 13, Y-Aib-E-G-T-F-T-S-D-L-S-I-Q-K(γE-x70)-EKEAVRLFIEWLKAGGPSSGAPPPS-NH2] (H-Y[Aib]EGTFTSDLSIQK([γGlu-Stearoyl])EKEAVRLFIEWLKAGGPSSGAPPPS-NH2)
- maximal effect, glucose reduction ([6]; at 240 min, kept to 480 min, baseline 20-22 mmol/l): ~12 mmol/L
- reduction of glucose compared to vehicle control ([6]; from t=90 min until end of observation, p<0.05): statistical significant reduction of glucose
- Stability (pH 7.4) [7]: 84.0%
- pEC50 ([3]; Table 7, cAMP formation, read-out: EC50 hGIP R): 10.77
- pEC50 ([4]; read-out: EC50 hGLP-1 R): 10.67
- solubility at 2 h ([8]; pH 4.5, read-out: Solubility (pH 4.5)): 688 µg/mL (≈ 150 µM)
- solubility at 2 h ([8]; pH 7.4, read-out: Solubility (pH 7.4)): 824 µg/mL (≈ 180 µM)
- pEC50 ([5]; read-out: EC50 hGLUC R): 6.70

Reference: US20140206608A1 (priority 2012, published 2014)
